Results taken from patent publication US12653914B2, “Compounds for fast and efficient click release” (priority 2019, dated 2026).
pIC50: −log10 of the molar value. Where two headings read alike, the source gives them in different places. Where a SMILES comes first, the peptide text is derived from it. [ ]: non-standard residue; d: D form. The star is where a group is joined. Dolaproine = CO[C@@H]([C@@H]1CCCN1)[C@@H](C)C(=O)O; X1 = COC(=O)[C@]1(O)CC/C=C/[C@H](OC(=O)*)CC1; Dil = CC[C@H](C)[C@H](NC)[C@@H](CC(=O)O)OC; X2 = C[C@@H](N*)[C@@H](O)c1ccccc1; NMeV = CN[C@H](C(=O)O)C(C)C

Tests used:
[1] = cited from earlier work
[2] = Second order rate constant, TCO derivatives with tetrazine 2.18, pseudo-first order, UV spectroscopy in MeCN; details: reaction with 2.18 in MeCN at 20° C.; estimated from k1′
Procedure: Second order rate constant for the reaction between TCO derivatives and tetrazine 2.18 was determined under pseudo-first order conditions in MeCN at 20° C. by UV spectroscopy. A cuvette was filled with MeCN (3 mL) and equilibrated at 20° C. A solution of 2.18 (20 μL, 25 mM in DMSO) was added, followed by a solution of the TCO (5 μL 25 mM in DMSO). The absorption at 540 nm was monitored. The pseudo-first order reaction constant k1′ was calculated from the half-life of the decrease of this absorption, and the second order rate constant k2 was estimated from k1′ and the initial concentration of tetrazine: k2=k1′/c.

[3] = Release of constructs (C^A) from TCO triggers with tetrazines, HPLC-MS/PDA; details: for Time point and release %: MeCN/PBS
Procedure: In another experiment, the release of TCO triggers was evaluated with a range of tetrazines. The constructs to be released included the drug doxorubicin, and methylamine as a model C^A. TCO-C^A conjugates (10 μL, 25 mM in DMSO) were diluted with MeCN ([…]) and PBS ([…]). Next, a solution of the tetrazine activator (20 μL 25 mM in DMSO) was added, and the release was evaluated by HPLC-MS/PDA. The results in Table 6 show complete C^A release in 5 min from all TCO triggers with all tested activators. Importantly, no release was observed from 1.42 and 1.62 upon reaction with 2.18, which supports Formula (19), wherein an amine being Y^T1, Y^T2 or Y^T3 cannot be bound to a carbonyl.

[4] = Release kinetics of 7-amino-4-methylcoumarin (AMC) in various media, fluorescence; details: 5 μM 1.14, 7 μM activator 2.18
Procedure: 1.14 was reacted in PBS, DMEM buffer, full cell growth medium (DMEM+10% FBS) or human plasma at a concentration of 5 μM with activator 2.18 (7 μM) in a quartz cuvette while magnetic stirring. The increase of fluorescence due to the release of 7-amino-4-methylcoumarin (AMC) was monitored using a Perkin Elmer LS55 fluorescence spectrometer. […] In contrast, with TCO triggers not of this invention, 2.18 gives low and slow release [Versteegen et al., Angew. Chem. Int. Ed. 2013, 52, 14112-14116, Sarris et al., Chem Eur J 2018, 24, 18075-18081].

[5] = Dye (AF594) release efficiency from TCO-C^A conjugates with tetrazine activators, HPLC endpoint; details: 25 μM TCO, 50 μM tetrazine, PBS 37° C., 48 h, n = 2, ±1%
Procedure: 1.15 and 1.72 (as control without an Y^T1 group) were reacted at a concentration of 25 μM with various tetrazine activators (50 μM) in PBS (DMSO content <1%) at 37° C. Samples were analyzed by HPLC (UV and fluorescence detection; 10-100% MeCN in water with 2.5 mM NH4OAc, pH 8.4) after 48 h to obtain endpoint data for the overall dye release efficiency (Table 5). […] Importantly, highly reactive tetrazines that normally give low release yields, now give quantitative release. Compare with [Versteegen et al., Angew. Chem. Int. Ed. 2013, 52, 14112-14116, Sarris et al., Chem Eur J 2018, 24, 18075-18081].

[6] = test system: HT-1080 cells (human fibrosarcoma); experiment: Cell viability, MTT assay; assay type: cell-based; details: then 94 h, n=3
Procedure: HT-1080 cells (human fibrosarcoma) were added with serial dilutions of the TCO-MMAE prodrug 1.16 (100 μM-0.32 nM) in growth medium and 10 μL of a stock solution of activator 2.18 (50 μM in PBS) in a 96-well plate (n=3). After a 2 h incubation at 37° C., the medium was refreshed and the cells were incubated for 94 more hours.

[7] = Second order rate constants, TCO with tetrazine activators, stopped-flow spectrophotometry in PBS; details: PBS at 37° C., 25 μM tetrazine, 50 μM TCO
Procedure: Second order rate constants for the reaction of tetrazines activators with 1.13 and 1.71 were determined using a SX20 stopped-flow spectrophotometer from Applied Photophysics. Measurements were performed at 37° C. with 25 μM tetrazine and 50 μM TCO in PBS, in triplicates, monitored at 535 nm. Data was analyzed using GraphPad Prism. Second order rate constants were determined from nonlinear fitting of the absorbance vs. time curves to the second order rate equation. […] Importantly, 2.17 and 2.18 are very reactive, but afford low release yields with TCO triggers that are not part of this invention (i.e. 1.71) [Versteegen et al., Angew. Chem. Int. Ed. 2013, 52, 14112-14116].

[8] = 5 min, tetrazine 2.18, released payload dimethylamine
[9] = 10 min, tetrazine 2.20, released payload doxorubicin

Cc1nnc(C)nn1 [3,6-bis-methyl-1,2,4,5-tetrazine]
maximum release yield ([1]; release typically takes several hours): 80-90%

C[Si](C)(C)CCOC(=O)N[C@H]1C/C=C/[C@H](O)CC[C@H]1CO [Compound 1.51, 2-(trimethylsilyl)ethyl N-[(1S,3E,5R,8R)-5-hydroxy-8-(hydroxymethyl)cyclooct-3-en-1-yl]carbamate]
k2 [2]: 104 M⁻¹ s⁻¹

CN(C)C(=O)O[C@@H]1/C=C/CCNCC1 (racemic) [Compound 1.63, (S,E)-1,2,3,4,7,8-Hexahydroazocin-4-yl dimethylcarbamate]
Time point and release % [3, 8]: 5 min: 100%

CNC(=O)C[C@@H]1CC[C@H](OC(=O)N(C)C)/C=C/C[C@H]1O (relative stereo) [Compound 1.70, (rel-1S,5R,6S,E)-5-Hydroxy-6-(2-(methylamino)-2-oxoethyl)cyclooct-2-en-1-yl dimethylcarbamate]
Time point and release % [3, 8]: 5 min: 100%

COC(=O)[C@]1(O)CC/C=C/[C@H](OC(=O)Nc2ccc3c(C)cc(=O)oc3c2)CC1 [Compound 1.14, Methyl(1S,4E,6R)-1-hydroxy-6-{[(4-methyl-2-oxo-2H-chromen-7-yl)carbamoyl]oxy}cyclooct-4-ene-1-carboxylate]
time to reach 100% AMC release ([4]; PBS and medium (neat or containing FBS)): 1 to 3 min | time to complete AMC release ([4]; human plasma): approximately 20 min

TCO-PEG2-AF594 [Compound 1.15]
Release (%) of fluorescent dye (AF594) ([5]; activator 2.10): 99% | Release (%) of fluorescent dye (AF594) ([5]; activator 2.11): 99% | Release (%) of fluorescent dye (AF594) ([5]; activator 2.12): 92% | Release (%) of fluorescent dye (AF594) ([5]; activator 2.13): 99% | Release (%) of fluorescent dye (AF594) ([5]; activator 2.14): 99% | Release (%) of fluorescent dye (AF594) ([5]; activator 2.16): 92% | Release (%) of fluorescent dye (AF594) ([5]; activator 2.17): 96% | Release (%) of fluorescent dye (AF594) ([5]; activator 2.18): 99% | Release (%) of fluorescent dye (AF594) ([5]; activator 2.19): 99% | Release (%) of fluorescent dye (AF594) ([5]; activator 2.6): 93% | Release (%) of fluorescent dye (AF594) ([5]; activator 2.9): 98%

COc1cccc2c1C(=O)c1c(O)c3c(c(O)c1C2=O)C[C@@](O)(C(=O)CO)C[C@@H]3O[C@@H]1C[C@H](NC(=O)O[C@@H]2/C=C/CCNCC2)[C@H](O)[C@H](C)O1 [Compound 1.65, TCO-doxorubicin]
Time point and release % [3, 9]: 10 min: 100%

COC(=O)[C@H]1CC[C@@H](OC(=O)N(C)C)/C=C/C[C@@H]1NC(=O)OCC[Si](C)(C)C [Compound 1.42, Methyl (1S,2S,4E,6R)-6-((dimethylcarbamoyl)oxy)-2-(((2-(trimethylsilyl)ethoxy)carbonyl)amino)cyclooct-4-ene-1-carboxylate]
release upon reaction with 2.18 ([3]; tetrazine 2.18, amine bound to a carbonyl (protected)): no release

CN(C)C(=O)OC[C@H]1CC[C@H](OC(=O)N(C)C)/C=C/C[C@H]1N (stereo in doubt) [Compound 1.54, (1S,5R,6S,E)-5-Amino-6-(((dimethylcarbamoyl)oxy)methyl)cyclooct-2-en-1-yl dimethylcarbamate]
k2 [2]: 38 M⁻¹ s⁻¹ | Time point and release % [3, 8]: 5 min: 50%

C[Si](C)(C)CCOC(=O)N1CC/C=C/C(O)CC1 (centres unmarked) [Compound 1.60, 2-(Trimethylsilyl)ethyl (E)-4-hydroxy-3,4,7,8-tetrahydroazocine-1(2H)-carboxylate]
k2 [2]: 277 M⁻¹ s⁻¹

CC[C@H](C)[C@@H]([C@@H](CC(=O)N1CCC[C@H]1[C@H](OC)[C@@H](C)C(=O)N[C@H](C)[C@@H](O)c1ccccc1)OC)N(C)C(=O)[C@@H](NC(=O)[C@H](C(C)C)N(C)C(=O)O[C@H]1/C=C/CC[C@@](O)(C(=O)OC)CC1)C(C)C [Compound 1.16, TCO-MMAE] (X1-[NMeV]V[Dil][Dolaproine]-X2)
pIC50 ([6]; HT-1080, 1.16 alone (no activator), 2 h incubation): 5.89 | pIC50 ([6]; HT-1080, in the presence of activator 2.18, 2 h incubation): 9.52

O=C(NCCOCCOCCOCCO)O[C@H]1/C=C/CCCCC1 [Compound 1.71, reference compound]
k2 ([7]; activator 2.12): 280 ± 30 M⁻¹ s⁻¹ | k2 ([7]; activator 2.17): 10300 ± 1200 M⁻¹ s⁻¹ | k2 ([7]; activator 2.18): 9300 ± 500 M⁻¹ s⁻¹ | k2 ([7]; activator 2.9): 80 ± 10 M⁻¹ s⁻¹

COC(=O)[C@H]1CC[C@@H](O)/C=C/C[C@@H]1NC(=O)OCC[Si](C)(C)C [Compound 1.40, Methyl (1S,2S,4E,6R)-6-hydroxy-2-({[2-(trimethylsilyl)ethoxy]carbonyl}amino)cyclooct-4-ene-1-carboxylate]
k2 [2]: 39 M⁻¹ s⁻¹

COC(=O)[C@H]1CC[C@@H](OC(=O)N[C@H]2C[C@@H](OC3C[C@](O)(C(=O)CO)Cc4c(O)c5c(c(O)c43)C(=O)c3c(OC)cccc3C5=O)O[C@@H](C)[C@H]2O)/C=C/C[C@@H]1N (some centres unmarked) [Compound 1.45, TCO-doxorubicin]
Time point and release % [3, 9]: 10 min: 100%

CN(C)C(=O)O[C@@H]1/C=C/CCN(C(=O)OCC[Si](C)(C)C)CC1 (racemic) [Compound 1.62, 2-(Trimethylsilyl)ethyl (S,E)-4-((dimethylcarbamoyl)oxy)-3,4,7,8-tetrahydroazocine-1(2H)-carboxylate]
k2 [2]: 80 M⁻¹ s⁻¹ | release upon reaction with 2.18 [3]: no release

c1ccc(-c2nnc(-c3ccccn3)nn2)nc1 [3,6-bis-(2-pyridyl)-1,2,4,5-tetrazine]
click release yield ([1]; PBS/MeCN (3:1)): 7% | click release yield ([1]; serum): 12%

COC(=O)[C@H]1CC[C@@H](OC(=O)N(C)C)/C=C/C[C@@H]1N [Compound 1.43, Methyl (1S,2S,4E,6R)-2-amino-6-((dimethylcarbamoyl)oxy)cyclooct-4-ene-1-carboxylate]
k2 [2]: 27 M⁻¹ s⁻¹ | Time point and release % ([3]; 5 min, tetrazines 2.1, 2.3, 2.15, 2.17, 2.18 (for all tested activators), released payload dimethylamine): 5 min: 100%

COC(=O)[C@]1(O)CC/C=C/[C@H](OC(=O)N(C)c2ccc([C@@H](O)C(=O)O)cc2)CC1 [Compound 1.19, 2-Hydroxy-2-{4-[({[(1R,2E,6S)-6-hydroxy-6-(methoxycarbonyl)cyclooct-2-en-1-yl]oxy}carbonyl)(methyl)amino]phenyl}acetic acid]
k2 [2]: 134 M⁻¹ s⁻¹ | Time point and release % ([3]; 5 min, tetrazines 2.1, 2.3, 2.18 (for all tested activators), released payload 2-hydroxy-2-[4-(methylamino)phenyl]acetic acid): 5 min: 100%
